Assays:
CDK1/cyclin B [1] = experiment: CDK1/cyclin B kinase assay (histone H1); format: biochemical, starfish (Marthasterias glacialis)
Protocol: Kinases activities were assayed in Buffer A or C (unless otherwise stated), at 30° C., at a final ATP concentration of 15 μM. Blank values were subtracted and activities calculated as pmoles of phosphate incorporated for a 10 min. incubation (usually expressed in % of the maximal activity, i.e. without inhibitors). Controls were performed with appropriate dilutions of Me2SO. In some cases phosphorylation of the substrate was assessed by autoradiography after SDS-PAGE. IC50 values were estimated from the dose-response curves. • CDK1/cyclin B was extracted in homogenisation buffer from M phase starfish (Marthasterias glacialis) oocytes and purified by affinity chromatography on p9^CKShs1-Sepharose beads, from which it was eluted by free p9^CKShs1 as described. The kinase activity was assayed in buffer C, with 1 mg histone H1/ml, in the presence of 15 μM [γ-^32P] ATP (3,000 Ci/mmol; 1 mCi/ml) in a final volume of 30 μl. After 10 min. incubation at 30° C., 25 μl aliquots of supernatant were spotted onto 2.5×3 cm pieces of Whatman P81 phosphocellulose paper, and, 20 sec. later, the filters were washed five times (for at least 5 min. each time) in a solution of 10 ml phosphoric acid/liter of water. The wet filters were counted in the presence of 1 ml ACS (Amersham) scintillation fluid. • GSK-3β was either purified from rabbit muscle or expressed in and purified from insect Sf9 cells. It was assayed, following a 1/100 dilution in 1 mg BSA/ml 10 mM DTT, with 5 μl 40 μM GS-1 peptide as a substrate, in buffer A, in the presence of 15 μM [γ-^32P] ATP (3,000 Ci/mmol; 1 mCi/ml) in a final volume of 30 μl. […] Its activity was assayed in buffer C as described for CDK1/cyclin B. • CDK2/cyclin A, CDK2/cyclin E, CDK3/cyclin E, CDK4/cyclin D1, CDK6/cyclin D2, His-tagged erk1 and erk2, protein kinase C isoforms, the catalytic subunit of cAMP-dependent protein kinase, cGMP-dependent protein kinase, Myosin light chain kinase, casein kinases 1 & 2, ASK-γ (a plant homologue of GSK-3), insulin receptor tyrosine kinase domain (CIRK-41), c-raf, MAPKK, c-jun N terminal kinase (obtained from Promega), c-src kinase and v-abl kinase were assayed as described. Electrophoresis and Western Blotting

cdk2/cyclin E = cdk2/cyclin E (Homo sapiens, UniProt P24941); experiment: cdk2/cyclin E kinase assay; format: biochemical; conditions: 15 μM ATP
Protocol: (§1) Kinases activities were assayed in Buffer A or C (unless otherwise stated), at 30° C., at a final ATP concentration of 15 μM. Blank values were subtracted and activities calculated as pmoles of phosphate incorporated for a 10 min. incubation (usually expressed in % of the maximal activity, i.e. without inhibitors). Controls were performed with appropriate dilutions of Me2SO. In some cases phosphorylation of the substrate was assessed by autoradiography after SDS-PAGE. IC50 values were estimated from the dose-response curves. • CDK1/cyclin B was extracted in homogenisation buffer from M phase starfish (Marthasterias glacialis) oocytes and purified by affinity chromatography on p9^CKShs1-Sepharose beads, from which it was eluted by free p9^CKShs1 as described. The kinase activity was assayed in buffer C, with 1 mg histone H1/ml, in the presence of 15 μM [γ-^32P] ATP (3,000 Ci/mmol; 1 mCi/ml) in a final volume of 30 μl. After 10 min. incubation at 30° C., 25 μl aliquots of supernatant were spotted onto 2.5×3 cm pieces of Whatman P81 phosphocellulose paper, and, 20 sec. later, the filters were washed five times (for at least 5 min. each time) in a solution of 10 ml phosphoric acid/liter of water. The wet filters were counted in the presence of 1 ml ACS (Amersham) scintillation fluid. • GSK-3β was either purified from rabbit muscle or expressed in and purified from insect Sf9 cells. […]

erk1 = target: T1, erk1 (Homo sapiens, UniProt P27361); experiment: erk1 kinase assay; format: biochemical; conditions: 15 μM ATP
T1 construct: His
T1 sequence (P27361 whole entry, species assumed): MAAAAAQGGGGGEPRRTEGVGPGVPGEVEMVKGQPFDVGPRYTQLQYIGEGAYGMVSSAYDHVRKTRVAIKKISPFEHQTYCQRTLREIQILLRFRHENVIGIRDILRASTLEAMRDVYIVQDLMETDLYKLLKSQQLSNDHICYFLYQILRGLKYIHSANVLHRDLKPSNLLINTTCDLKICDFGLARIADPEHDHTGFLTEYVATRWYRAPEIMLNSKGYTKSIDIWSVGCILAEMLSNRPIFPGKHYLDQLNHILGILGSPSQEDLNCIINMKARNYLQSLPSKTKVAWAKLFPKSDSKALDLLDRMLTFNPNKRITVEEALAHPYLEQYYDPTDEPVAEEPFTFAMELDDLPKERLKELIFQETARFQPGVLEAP
Protocol: Blank values were subtracted and activities calculated as pmoles of phosphate incorporated for a 10 min. incubation (usually expressed in % of the maximal activity, i.e. without inhibitors). Controls were performed with appropriate dilutions of Me2SO. In some cases phosphorylation of the substrate was assessed by autoradiography after SDS-PAGE. […] ATP (3,000 Ci/mmol; 1 mCi/ml) in a final volume of 30 μl. After 10 min. incubation at 30° C., 25 μl aliquots of supernatant were spotted onto 2.5×3 cm pieces of Whatman P81 phosphocellulose paper, and, 20 sec. later, the filters were washed five times (for at least 5 min. each time) in a solution of 10 ml phosphoric acid/liter of water. […] ATP (3,000 Ci/mmol; 1 mCi/ml) in a final volume of 30 μl. […] Its activity was assayed in buffer C as described for CDK1/cyclin B. • CDK2/cyclin A, CDK2/cyclin E, CDK3/cyclin E, CDK4/cyclin D1, CDK6/cyclin D2, His-tagged erk1 and erk2, protein kinase C isoforms, the catalytic subunit of cAMP-dependent protein kinase, cGMP-dependent protein kinase, Myosin light chain kinase, casein kinases 1 & 2, ASK-γ (a plant homologue of GSK-3), insulin receptor tyrosine kinase domain (CIRK-41), c-raf, MAPKK, c-jun N terminal kinase (obtained from Promega), c-src kinase and v-abl kinase were assayed as described [15].

protein kinase C ζ = protein kinase C ζ (Homo sapiens, UniProt Q05513); experiment: protein kinase C ζ assay; format: biochemical; conditions: 15 μM ATP
protein kinase C ζ, sequence (Q05513 whole entry): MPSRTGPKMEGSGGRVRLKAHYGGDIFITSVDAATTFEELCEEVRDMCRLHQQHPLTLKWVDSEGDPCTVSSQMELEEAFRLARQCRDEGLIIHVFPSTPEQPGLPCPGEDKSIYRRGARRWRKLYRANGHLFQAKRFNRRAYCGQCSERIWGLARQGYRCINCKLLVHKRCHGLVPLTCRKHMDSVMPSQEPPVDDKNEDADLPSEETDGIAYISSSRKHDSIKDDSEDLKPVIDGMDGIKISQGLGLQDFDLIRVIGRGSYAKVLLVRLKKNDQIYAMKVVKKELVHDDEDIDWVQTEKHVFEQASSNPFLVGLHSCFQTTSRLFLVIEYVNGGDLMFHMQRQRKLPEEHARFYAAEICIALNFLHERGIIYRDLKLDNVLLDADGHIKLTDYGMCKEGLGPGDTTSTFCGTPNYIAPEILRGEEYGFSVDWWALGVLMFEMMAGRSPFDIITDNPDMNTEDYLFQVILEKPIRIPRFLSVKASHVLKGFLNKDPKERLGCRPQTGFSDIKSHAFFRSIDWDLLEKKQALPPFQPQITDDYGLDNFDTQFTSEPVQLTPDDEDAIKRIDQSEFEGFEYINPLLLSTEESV
Protocol: as §1

CDK1/cyclin B [2] = experiment: CDK1/cyclin B kinetic experiments varying ATP and HD; format: biochemical, starfish (Marthasterias glacialis)
Protocol: Blank values were subtracted and activities calculated as pmoles of phosphate incorporated for a 10 min. incubation (usually expressed in % of the maximal activity, i.e. without inhibitors). Controls were performed with appropriate dilutions of Me2SO. In some cases phosphorylation of the substrate was assessed by autoradiography after SDS-PAGE. IC50 values were estimated from the dose-response curves. • CDK1/cyclin B was extracted in homogenisation buffer from M phase starfish (Marthasterias glacialis) oocytes and purified by affinity chromatography on p9^CKShs1-Sepharose beads, from which it was eluted by free p9^CKShs1 as described. […] ATP (3,000 Ci/mmol; 1 mCi/ml) in a final volume of 30 μl. After 10 min. incubation at 30° C., 25 μl aliquots of supernatant were spotted onto 2.5×3 cm pieces of Whatman P81 phosphocellulose paper, and, 20 sec. later, the filters were washed five times (for at least 5 min. each time) in a solution of 10 ml phosphoric acid/liter of water. The wet filters were counted in the presence of 1 ml ACS (Amersham) scintillation fluid. • GSK-3β was either purified from rabbit muscle or expressed in and purified from insect Sf9 cells. […] ATP (3,000 Ci/mmol; 1 mCi/ml) in a final volume of 30 μl. […]

CDK5/p35 = CDK5/p35 (Rattus norvegicus, UniProt Q03114); experiment: In vivo Pak1 phosphorylation in cultured E18 cortical neurones; format: cell-based; design: endogenous in cells; host or cells: primary cortical neurones from E18 rat embryos; conditions: 1 hour exposure
CDK5/p35, sequence (Q03114 whole entry): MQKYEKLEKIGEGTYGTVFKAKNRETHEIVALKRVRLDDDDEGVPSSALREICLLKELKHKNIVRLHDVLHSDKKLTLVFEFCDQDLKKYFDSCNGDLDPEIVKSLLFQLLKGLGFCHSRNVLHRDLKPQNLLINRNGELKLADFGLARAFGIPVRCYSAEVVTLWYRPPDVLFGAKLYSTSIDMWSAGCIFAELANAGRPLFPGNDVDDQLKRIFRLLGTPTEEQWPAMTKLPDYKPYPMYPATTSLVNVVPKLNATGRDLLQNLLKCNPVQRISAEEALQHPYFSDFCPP
CDK5/p35, sequence (P61810 2-307 partner limits assumed): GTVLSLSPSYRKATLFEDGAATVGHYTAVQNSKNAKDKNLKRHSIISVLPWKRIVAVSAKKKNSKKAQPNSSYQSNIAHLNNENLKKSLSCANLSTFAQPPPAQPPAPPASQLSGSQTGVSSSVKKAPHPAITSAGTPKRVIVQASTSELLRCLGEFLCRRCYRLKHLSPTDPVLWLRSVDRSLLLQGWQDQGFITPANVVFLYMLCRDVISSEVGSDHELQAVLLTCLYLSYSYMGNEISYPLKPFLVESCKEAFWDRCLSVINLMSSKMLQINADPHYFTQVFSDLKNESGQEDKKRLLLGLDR
Protocol: HD was added onto cultured neurones obtained from E18 rat embryo cortices when the cultures were 4 days old. As a control DMSO was used to the maximal volume of drug used (7.5 μl). The drug was left on the cells for 1 hour. The cells were then lysed on ice in STM buffer and the membrane fraction isolated with STM containing 0.5% NP-40 [17].
Pak1 immunoprecipitations were carried out using a specific polyclonal antibody, followed by kinase assays using histone H4 as a a substrate. The amount of H4 phosphorylation, reflecting the level of Pak1 activity, was determined by measuring the intensity of the bands on autoradiography film and quantitating with NIH imaging program.
As loading controls Pak1 and p35 western blots were made. The latter protein increases in amount with the level of CDK5/p35 kinase inhibition.

NC1=NC(=O)C(=C2CCNC(=O)c3[nH]c(Br)cc32)N1 [hymenialdisine, 4-(2-amino-4-oxo-2-imidazolin-5-ylidene)-2-bromo-4,5,6,7-tetrahydropyrrolo (2,3-c) azepine-8-one]
IC50 (CDK1/cyclin B [1]): 22 nM
IC50 (cdk2/cyclin E): 40 nM
IC50 (erk1): 470 nM
IC50 (protein kinase C ζ): 60000 nM
Ki (CDK1/cyclin B [2]; ATP 0.05 to 0.25 mM, histone H1 0.7 mg/ml, read-out: apparent inhibition constant (Ki)): 50 nM
mechanism of inhibition (CDK1/cyclin B [2]; double-reciprocal plots): competitive inhibitor for ATP
Pak1 activity (H4 phosphorylation) in neurons (CDK5/p35): increase in Pak1 activity

— patent US7098204B2 (C.N.R.S., priority 1999, dated 2006)
